# From patent US20150105252A1, “SUBSTITUTED PYRAZOLES AS HERBICIDES” (E I DU PONT DE NEMOURS AND COMPANY, priority 2013, published 2015)
# Experiments:
# Surinam grass [1] = experiment: Test C postemergence; format: in vivo, Brachiaria decumbens; settings: for Surinam Grass plant response rating: 62 g ai/ha, scale 0 to 100
# Description: (§1) Seeds of plant species selected from blackgrass (Alopecurus myosuroides), ryegrass, Italian (Italian ryegrass, Lolium multiflorum), wheat (winter wheat, Triticum aestivum), galium (catchweed bedstraw, Galium aparine), corn (Zea mays), crabgrass, large (large crabgrass, Digitaria sanguinalis), foxtail, giant (giant foxtail, Setaria faberii), johnsongrass (Sorghum halepense), lambsquarters (Chenopodium album), morningglory (Ipomoea coccinea), nutsedge, yellow (yellow nutsedge, Cyperus esculentus), pigweed (redroot pigweed, Amaranthus retroflexus), ragweed (common ragweed, Ambrosia elation), soybean (Glycine max), barnyardgrass (Echinochloa crus-galli), oilseed rape (Brassica napus), waterhemp (common waterhemp, Amaranthus rudis), oat, wild (wild oat, Avena fatua), kochia (Kochia scoparia), Surinam grass (Brachiaria decumbens), foxtail, green (green foxtail, Setaria viridis), goosegrass (Eleusine indica), bromegrass, downy (downy bromegrass, Bromus tectorum), nightshade (eastern black nightshade, Solanum ptycanthum), cocklebur (common cocklebur, Xanthium strumarium), cupgrass, woolly (woolly cupgrass, Eriochloa villosa), bermudagrass (Cynodon dactylon), sunflower, (common oilseed sunflower, Helianthus annuus), Russian thistle (Salsola kali), and velvetleaf (Abutilon theophrasti) were planted into a blend of loam soil and sand and treated preemergence with test chemicals formulated in a non-phytotoxic solvent mixture which included a surfactant.
# (§2) At the same time, plants selected from these crop and weed species and also chickweed (common chickweed, Stellaria media), canarygrass (littleseed canarygrass, Phalaris minor), and deadnettle (henbit deadnettle, Lamium amplexicaule), were planted in pots containing Redi-Earth® planting medium (Scotts Company, 14111 Scottslawn Road, Marysville, Ohio 43041) comprising spaghnum peat moss, vermiculite, wetting agent and starter nutrients and treated with postemergence applications of test chemicals formulated in the same manner. Plants ranged in height from 2 to 18 cm (1- to 4-leaf stage) for postemergence treatments. Treated plants and controls were maintained in a greenhouse for 13 to 15 days, after which time all species were compared to controls and visually evaluated. Plant response ratings, summarized in Table C, are based on a scale of 0 to 100 where 0 is no effect and 100 is complete control. A dash (-) response means no test result.
# barley = experiment: Test C postemergence; format: in vivo, Hordeum vulgare; settings: scale 0 to 100, 0 no effect, 100 complete control
# Surinam grass [2] = experiment: Test C preemergence; format: in vivo, Brachiaria decumbens; settings: for Plant response rating (scale of 0 to 100), Surinam Grass: Preemergence, 250 g ai/ha; for Surinam Grass plant response rating / Plant response rating, Surinam Grass: preemergence; for Plant response rating, Surinam Grass: 62 g ai/ha, scale 0 to 100, 0 = no effect, 100 = complete control
# Description: as §1, §2
# corn = experiment: Test F preemergence; format: in vivo, Zea mays
# Description: (§3) Seeds of plant species selected from corn (Zea mays), soybean (Glycine max), velvetleaf (Abutilon theophrasti), lambsquarters (Chenopodium album), wild poinsettia (Euphorbia heterophylla), pigweed, palmer (palmer pigweed, Amaranthus palmeri), common waterhemp (Amaranthus rudis), surinam grass (Brachiaria decumbens), large crabgrass (Digitaria sanguinalis), crabgrass, Brazil (Brazilian crabgrass, Digitaria horizontalis), fall panicum (Panicum dichotomiflorum), giant foxtail (Setaria faberii), green foxtail (Setaria viridis), goosegrass (Eleusine indica), johnsongrass (Sorghum halepense), common ragweed (Ambrosia elation), barnyardgrass (Echinochloa crus-galli), southern sandbur (Cenchrus echinatus), arrowleaf sida (Sida rhombifolia), Italian ryegrass (Lolium multiflorum), dayflower, VA (Virginia (VA) dayflower, Commelina virginica), field bindweed (Convolvulus arvensis), cocklebur (common cocklebur, Xanthium strumarium), morningglory (Ipomoea coccinea), nightshade (eastern black nightshade, Solanum ptycanthum), kochia (Kochia scoparia), yellow nutsedge (Cyperus esculentus), and hairy beggarticks (Bidens pilosa), were planted into a silt loam soil and treated preemergence with test chemicals formulated in a non-phytotoxic solvent mixture which included a surfactant.
# (§4) At the same time, plants from these crop and weed species and also horseweed (Canada horseweed, Conyza canadensis), smartweed (ladysthumb smartweed, Polygonum persicaria), waterhemp_RES1, (ALS & Triazine resistant common waterhemp, Amaranthus rudis), and waterhemp_RES2, (ALS & HPPD resistant common waterhemp, Amaranthus rudis) were treated with postemergence applications of test chemicals formulated in the same manner. Plants ranged in height from 2 to 18 cm for postemergence treatments (1- to 4-leaf stage). Treated plants and controls were maintained in a greenhouse for 14 to 21 days, after which time all species were compared to controls and visually evaluated. Plant response ratings, summarized in Table F, are based on a scale of 0 to 100 where 0 is no effect and 100 is complete control. A dash (-) response means no test result.
# barnyardgrass = experiment: Test F preemergence; format: in vivo, Echinochloa crus-galli
# Description: as §3, §4
# yellow nutsedge = experiment: Test F preemergence; format: in vivo, Cyperus esculentus
# Description: as §3, §4
# Italian ryegrass = experiment: Test A preemergence; format: in vivo, Lolium multiflorum
# Summary of the method: (§5)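 Both timings tested concurrently in loam/sand soil: preemergence by directed soil spray, postemergence on plants of 2–10 cm at the one- to two-leaf stage. Greenhouse holding period was approximately 10 days before visual injury assessment (0–100, 0 = no effect).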
# kochia = experiment: Test A postemergence; format: in vivo, Kochia scoparia
# Summary of the method: as §5
# galium = experiment: Test A postemergence; format: in vivo, Galium aparine
# Summary of the method: as §5
# [3] = 125 g ai/ha, scale 0 to 100, 0 no effect, 100 complete control
# [4] = 250 g ai/ha, scale 0 to 100 (0 no effect, 100 complete control)
# [5] = 31 g ai/ha, scale 0 to 100 (0 no effect, 100 complete control), 13 to 15 days
# [6] = 125 g ai/ha, scale 0 to 100, 0 is no effect, 100 is complete control
# [7] = Preemergence, 31 g ai/ha, scale 0 to 100
# [8] = Preemergence, 62 g ai/ha, scale 0 to 100
# [9] = Preemergence, 125 g ai/ha, scale 0 to 100
# [10] = preemergence, 8 g ai/ha, scale 0 to 100, 100 is complete control
# [11] = preemergence, 16 g ai/ha, scale 0 to 100, 100 is complete control
# [12] = 125 g ai/ha, visual injury, 0 to 100 scale, approx. 10 days
# [13] = 500 g ai/ha, visual injury after approx. 10 days, 0 to 100 scale (0 no effect, 100 complete control)
# [14] = Postemergence, 500 g ai/ha, 0 to 100 scale (0 no effect, 100 complete control)
# [15] = postemergence, 125 g ai/ha, about 10 days, visual rating on 0 to 100 scale (0 no effect, 100 complete control)
# [16] = Preemergence, 250 g ai/ha, scale 0 to 100
# [17] = Postemergence, 125 g ai/ha, 0 to 100 scale, 0 no effect, 100 complete control
compound,measurement,setting,value
CCc1cc(C(=O)NCC(F)(F)F)nn1Cc1cccc(OC(F)(F)F)c1 [Compound 20],Surinam Grass plant response rating,Surinam grass [1],5
same,"Plant response rating, Surinam Grass",Surinam grass [1]; [3],10
same,"Plant response rating, Surinam Grass",Surinam grass [1]; [4],10
same,"Plant response rating, Barley",barley; 62 g ai/ha,20
CCCNC(=O)c1cc(CC)n(Cc2cccc(OC(F)(F)F)c2)n1 [Compound 27],Surinam Grass plant response rating,Surinam grass [1],5
same,"Plant response rating, Surinam Grass",Surinam grass [1]; [3],10
same,"Plant response rating, Surinam Grass",Surinam grass [1]; [4],10
same,"Plant response rating, Barley",barley; 62 g ai/ha,20
CCc1cc(C(=O)NOC(C)C)nn1Cc1cccc(OC(F)(F)F)c1 [Compound 70],"Plant response rating (scale of 0 to 100), Surinam Grass",Surinam grass [2],85
same,Surinam Grass plant response rating,Surinam grass [2]; [5],5
same,"Plant response rating, Surinam Grass",Surinam grass [2]; 13 to 15 days,25
same,Surinam Grass plant response rating,Surinam grass [2]; [6],65
same,Surinam Grass plant response rating,Surinam grass [1],10
same,"Plant response rating, Surinam Grass",Surinam grass [1]; [3],20
same,"Plant response rating, Surinam Grass",Surinam grass [1]; [4],30
same,"Plant response rating, Barley",barley; 62 g ai/ha,5
same,"Plant response rating, Barley",barley; 125 g ai/ha,10
CCONC(=O)c1cc(CC)n(Cc2cccc(OC(F)(F)F)c2)n1 [Compound 72],"Plant response rating (scale of 0 to 100), Surinam Grass",Surinam grass [2],75
same,Surinam Grass plant response rating,Surinam grass [2]; [5],10
same,"Plant response rating, Surinam Grass",Surinam grass [2]; 13 to 15 days,15
same,Surinam Grass plant response rating,Surinam grass [2]; [6],65
same,Surinam Grass plant response rating,Surinam grass [1],10
same,"Plant response rating, Surinam Grass",Surinam grass [1]; [3],10
same,"Plant response rating, Surinam Grass",Surinam grass [1]; [4],15
same,"Plant response rating, Barley",barley; 125 g ai/ha,5
Cc1cc(C(=O)NCC(F)(F)F)nn1Cc1ccnc(C(F)(F)F)c1 [Compound 74],"Plant response rating (scale of 0 to 100), Surinam Grass",Surinam grass [2],100
same,Surinam Grass plant response rating,Surinam grass [2]; [5],15
same,"Plant response rating, Surinam Grass",Surinam grass [2]; 13 to 15 days,50
same,Surinam Grass plant response rating,Surinam grass [2]; [6],85
same,Surinam Grass plant response rating,Surinam grass [1],10
same,"Plant response rating, Surinam Grass",Surinam grass [1]; [3],15
same,"Plant response rating, Surinam Grass",Surinam grass [1]; [4],25
same,"Plant response rating, Barley",barley; 125 g ai/ha,0
CCc1cc(-c2ccc(C(F)(F)F)cc2)nn1Cc1ccnc(C(F)(F)F)c1 [Compound 110],"Plant response rating, Corn",corn; [7],0
same,"Plant response rating, Corn",corn; [8],0
same,"Plant response rating, Corn",corn; [9],15
same,"Plant response rating, Corn",corn; [10],0
same,"Plant response rating, Corn",corn; [11],0
same,"Plant response rating, Barnyardgrass",barnyardgrass; [7],0
same,"Plant response rating, Barnyardgrass",barnyardgrass; [8],10
same,"Plant response rating, Barnyardgrass",barnyardgrass; [9],35
same,"Plant response rating, Barnyardgrass",barnyardgrass; [10],0
same,"Plant response rating, Barnyardgrass",barnyardgrass; [11],0
same,"Plant response rating, Yellow Nutsedge",yellow nutsedge; [7],0
same,"Plant response rating, Yellow Nutsedge",yellow nutsedge; [8],0
same,"Plant response rating, Yellow Nutsedge",yellow nutsedge; [9],0
same,"Plant response rating, Yellow Nutsedge",yellow nutsedge; [10],0
same,"Plant response rating, Yellow Nutsedge",yellow nutsedge; [11],0
CCc1cc(C(=O)NOC(C)C)nn1Cc1ccnc(OC(F)F)c1 [Compound 126],Italian Ryegrass plant response rating,Italian ryegrass; [12],90
same,Italian Ryegrass plant response rating,Italian ryegrass; [13],100
same,Kochia plant response rating,kochia; [14],100
same,Kochia plant response rating,kochia; [15],100
same,Galium plant response rating,galium; [14],90
same,Galium plant response rating,galium; [15],90
CCCc1cc(C(=O)NCC(F)(F)F)nn1Cc1ccnc(OC(F)F)c1 [Compound 127],Italian Ryegrass plant response rating,Italian ryegrass; [12],40
same,Italian Ryegrass plant response rating,Italian ryegrass; [13],90
same,Kochia plant response rating,kochia; [14],100
same,Kochia plant response rating,kochia; [15],90
same,Galium plant response rating,galium; [14],90
same,Galium plant response rating,galium; [15],90
CCOc1cc(C(=O)NCC(F)(F)F)nn1Cc1ccnc(OC(F)F)c1 [Compound 128],Italian Ryegrass plant response rating,Italian ryegrass; [12],30
same,Italian Ryegrass plant response rating,Italian ryegrass; [13],100
same,Kochia plant response rating,kochia; [14],90
same,Kochia plant response rating,kochia; [15],90
same,Galium plant response rating,galium; [14],100
same,Galium plant response rating,galium; [15],90
CCCNC(=O)c1cc(OCC)n(Cc2ccnc(OC(F)F)c2)n1 [Compound 136],Italian Ryegrass plant response rating,Italian ryegrass; [12],30
same,Italian Ryegrass plant response rating,Italian ryegrass; [13],100
same,Kochia plant response rating,kochia; [14],90
same,Kochia plant response rating,kochia; [15],90
same,Galium plant response rating,galium; [14],100
same,Galium plant response rating,galium; [15],90
CCCc1cc(C(=O)NC(C)C)nn1Cc1cc(C(F)(F)F)nn1C [Compound 201],"Plant response rating, Corn",corn; [8],10
same,"Plant response rating, Corn",corn; [9],20
same,"Plant response rating, Corn",corn; [16],60
same,"Plant response rating, Corn",corn; [11],0
same,"Plant response rating, Barnyardgrass","barnyardgrass; Preemergence, 16 g ai/ha, scale 0 to 100",0
same,"Plant response rating, Barnyardgrass",barnyardgrass; [8],10
same,"Plant response rating, Barnyardgrass",barnyardgrass; [9],85
same,"Plant response rating, Barnyardgrass",barnyardgrass; [16],95
same,"Plant response rating, Barnyardgrass",barnyardgrass; [11],0
same,"Plant response rating, Yellow Nutsedge",yellow nutsedge; [8],0
same,"Plant response rating, Yellow Nutsedge",yellow nutsedge; [9],0
same,"Plant response rating, Yellow Nutsedge",yellow nutsedge; [16],25
same,"Plant response rating, Yellow Nutsedge",yellow nutsedge; [11],0
CCCc1cc(C(=O)NC2CC2)nn1Cc1ccnc(OC(F)F)c1 [Compound 205],Italian Ryegrass plant response rating (0 to 100 scale),"Italian ryegrass; 125 g ai/ha, visual injury approx. 10 days after treatment",50
same,Italian Ryegrass plant response rating,Italian ryegrass; [13],100
same,Kochia plant response rating,kochia; [17],90
same,Kochia plant response rating,kochia; [14],90
same,Galium plant response rating,galium; [17],90
same,Galium plant response rating,galium; [14],90
CCc1cc(C(=O)NCC(F)(F)F)nn1Cc1ccnc(Br)c1 [Compound 224],"Plant response rating, Corn",corn; [8],0
same,"Plant response rating, Corn",corn; [9],20
same,"Plant response rating, Corn",corn; [16],40
same,"Plant response rating, Barnyardgrass",barnyardgrass; [8],0
same,"Plant response rating, Barnyardgrass",barnyardgrass; [9],40
same,"Plant response rating, Barnyardgrass",barnyardgrass; [16],70
same,"Plant response rating, Yellow Nutsedge",yellow nutsedge; [8],0
same,"Plant response rating, Yellow Nutsedge",yellow nutsedge; [9],35
same,"Plant response rating, Yellow Nutsedge",yellow nutsedge; [16],35
